pEC50: −log10 of the molar value.
What was measured:
[1] = Inhibition of reverse transcriptase L100I mutant in HIV-1 3B infected in human MT4 cells assessed as reduction in virus-induced cytopathic effect incubated for 5 days by MTT assay
[2] = Inhibition of reverse transcriptase K103N mutant in HIV-1 3B infected in human MT4 cells assessed as reduction in virus-induced cytopathic effect incubated for 5 days by MTT assay
[3] = Inhibition of reverse transcriptase Y181C mutant in HIV-1 3B infected in human MT4 cells assessed as reduction in virus-induced cytopathic effect incubated for 5 days by MTT assay
[4] = Inhibition of reverse transcriptase E138K mutant in HIV-1 3B infected in human MT4 cells assessed as reduction in virus-induced cytopathic effect incubated for 5 days by MTT assay
[5] = Inhibition of reverse transcriptase Y188L mutant in HIV-1 3B infected in human MT4 cells assessed as reduction in virus-induced cytopathic effect incubated for 5 days by MTT assay

With `N#Cc1ccc(Nc2nccc([C@H](O)c3ccc(-c4ccc(C#N)cc4)cc3Cl)n2)cc1` the pEC50 [1] was 5.80, the pEC50 [2] was 6.60 and the pEC50 [3] was 6.10. The pEC50 [4] was 6.69.
With `Cc1cc(-c2ccc(C#N)cc2)ccc1C(O)c1ccnc(Nc2ccc(C#N)cc2)n1` (configuration not stated) the pEC50 [1] was 6.74, the pEC50 [2] was 7.74 and the pEC50 [3] was 7.51. The pEC50 [5] was 6.21 and the pEC50 [4] was 8.01.
Molecule `COc1cc(-c2ccc(C#N)cc2)ccc1[C@H](O)c1ccnc(Nc2ccc(C#N)cc2)n1` has a pEC50 [1] of 7.17, a pEC50 [2] of 8.17 and a pEC50 [3] of 7.82. It also gave a pEC50 [5] of 7.06.
Molecule `Cc1cc(-c2ccc(C#N)cc2)cc(C)c1[C@@H](O)c1ccnc(Nc2ccc(C#N)cc2)n1` has a pEC50 [1] of 6.78, a pEC50 [2] of 7.68 and a pEC50 [3] of 7.34. It also gave a pEC50 [5] of 5.66 and a pEC50 [4] of 7.72.
With `N#Cc1ccc(Nc2nccc([C@@H](O)c3ccc(-c4ccc(C#N)cc4)cc3C(F)(F)F)n2)cc1` the pEC50 [1] was 7.03, the pEC50 [2] was 7.82 and the pEC50 [3] was 7.52. It also gave a pEC50 [5] of 6.50 and a pEC50 [4] of 8.04.
`Cc1cc(-c2ccc(C#N)cc2)ccc1[C@H](O)c1ccnc(Nc2ccc(C#N)cc2)n1` gave a pEC50 [1] of 7.09, a pEC50 [2] of 8.07 and a pEC50 [3] of 7.72. For the same molecule, the pEC50 [5] was 6.58 and the pEC50 [4] was 8.26.
Molecule `N#Cc1ccc(Nc2nccc([C@H](O)c3ccc(-c4ccc(C#N)cc4)cc3C(F)(F)F)n2)cc1` has a pEC50 [1] of 5.76, a pEC50 [2] of 5.72 and a pEC50 [3] of 5.74. It also gave a pEC50 [5] of less than 4.62 and a pEC50 [4] of 6.03.
Molecule `N#Cc1ccc(Nc2nccc([C@@H](O)c3ccc(-c4ccc(C#N)cc4)cc3Cl)n2)cc1` has a pEC50 [1] of 7.28, a pEC50 [2] of 8.49 and a pEC50 [3] of 7.85. For the same molecule, the pEC50 [5] was 6.89 and the pEC50 [4] was 8.52.
With `N#Cc1ccc(Nc2nccc([C@H](O)c3ccc(-c4ccc(C#N)cc4)cc3F)n2)cc1` the pEC50 [1] was 5.44, the pEC50 [2] was 6.13 and the pEC50 [3] was 5.93. For the same molecule, the pEC50 [5] was less than 4.52 and the pEC50 [4] was 6.79.
`N#Cc1ccc(Nc2nccc([C@H](O)c3c(F)cc(-c4ccc(C#N)cc4)cc3F)n2)cc1` showed a pEC50 [1] of 5.84, a pEC50 [2] of 6.44 and a pEC50 [3] of 6.36. For the same molecule, the pEC50 [5] was 5.23 and the pEC50 [4] was 7.26.
Work on `N#Cc1ccc(Nc2nccc([C@@H](O)c3ccc(-c4ccc(C#N)cc4)cc3F)n2)cc1` yielded a pEC50 [1] of 6.42, a pEC50 [2] of 7.30 and a pEC50 [3] of 7.11. The pEC50 [4] was 8.03.
For `COc1cc(-c2ccc(C#N)cc2)ccc1C(O)c1ccnc(Nc2ccc(C#N)cc2)n1` (configuration not stated), the pEC50 [1] was 6.95, the pEC50 [3] was 7.49 and the pEC50 [4] was 8.13.
Molecule `N#Cc1ccc(Nc2nccc(C(O)c3ccc(-c4ccc(C#N)cc4)cc3F)n2)cc1` (configuration not stated) has a pEC50 [1] of 6.04, a pEC50 [2] of 7.06 and a pEC50 [3] of 6.95. For the same molecule, the pEC50 [5] was 5.38 and the pEC50 [4] was 7.54.
For `N#Cc1ccc(Nc2nccc(C(O)c3ccc(-c4ccc(C#N)cc4)cc3C(F)(F)F)n2)cc1` (configuration not stated), the pEC50 [1] was 6.67, the pEC50 [2] was 7.59 and the pEC50 [3] was 7.23. The pEC50 [5] was 6.26 and the pEC50 [4] was 7.59.
With `Cc1cc(-c2ccc(C#N)cc2)ccc1[C@@H](O)c1ccnc(Nc2ccc(C#N)cc2)n1` the pEC50 [1] was 5.58, the pEC50 [2] was 6.32 and the pEC50 [3] was 6.13. The pEC50 [4] was 6.83.
For `Cc1cc(-c2ccc(C#N)cc2)cc(C)c1[C@H](O)c1ccnc(Nc2ccc(C#N)cc2)n1`, the pEC50 [1] was 7.70, the pEC50 [2] was 8.41 and the pEC50 [3] was 8.13. The pEC50 [4] was 8.14.
Work on `N#Cc1ccc(Nc2nccc(C(O)c3c(F)cc(-c4ccc(C#N)cc4)cc3F)n2)cc1` (configuration not stated) yielded a pEC50 [1] of 6.39, a pEC50 [2] of 7.21 and a pEC50 [3] of 6.90. For the same molecule, the pEC50 [5] was 5.46 and the pEC50 [4] was 7.60.
With `N#Cc1ccc(Nc2nccc([C@@H](O)c3c(F)cc(-c4ccc(C#N)cc4)cc3F)n2)cc1` the pEC50 [1] was 6.47, the pEC50 [2] was 7.44 and the pEC50 [3] was 7.05. It also gave a pEC50 [5] of 5.65 and a pEC50 [4] of 8.08.
In the case of `Cc1cc(-c2ccc(C#N)cc2)cc(C)c1C(O)c1ccnc(Nc2ccc(C#N)cc2)n1` (configuration not stated), the pEC50 [1] was 7.31, the pEC50 [2] was 8.15 and the pEC50 [3] was 7.64. The pEC50 [5] was 6.38 and the pEC50 [4] was 7.80.
`COc1cc(-c2ccc(C#N)cc2)ccc1[C@@H](O)c1ccnc(Nc2ccc(C#N)cc2)n1` gave a pEC50 [1] of 5.90, a pEC50 [2] of 6.36 and a pEC50 [3] of 6.29. It also gave a pEC50 [4] of 6.71.
For `N#Cc1ccc(Nc2nccc(C(O)c3ccc(-c4ccc(C#N)cc4)cc3Cl)n2)cc1` (configuration not stated), the pEC50 [1] was 7.04, the pEC50 [2] was 8.23 and the pEC50 [3] was 7.85. The pEC50 [5] was 6.53 and the pEC50 [4] was 8.14.

From BindingDB's records for doi:10.1016/j.ejmech.2020.112549 (Sichuan University, 2020)
